Results taken from patent publication US20230012368A1 (Hoffmann-La Roche Inc., priority 2018, published 2023).
Structures can show the parent of a compound that is named as a salt.

Test system: Acinetobacter baumannii ATCC 17978
Experiment: Antimicrobial susceptibility testing: 90% growth inhibitory concentration (IC90) determination
Assay type: cell-based
Details: 90% growth inhibitory concentration; Acinetobacter baumannii ATCC17978; Iso-Sensitest broth, OD 600 nm over 16h; read-out: ATCC17978 IC90
Outline: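 Growth of the Acinetobacter baumannii strain was followed by optical density at 600 nm every 20 minutes for 16h at 35±2° C. Inoculum was ~5×10^(5) CFU/ml in Iso-Sensitest medium, with twofold compound dilutions (e.g. 50 to 0.097 μM final). The 90% inhibitory concentration was derived in log-phase growth.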

Compared with `CCc1cc(Nc2nccn3c(-c4ccc(OC)c(F)c4F)cnc23)ccc1C(=O)NCCCCN` [Example 514, N-(4-aminobutyl)-4-((3-(2,3-difluoro-4-methoxyphenyl)imidazo[1,2-a]pyrazin-8-yl)amino)-2-ethylbenzamide hydrochloride], `CCc1cc(Nc2nccn3c(-c4ccc(OC(F)F)c(F)c4F)cnc23)ccc1C(=O)NC(CCN)C(F)F` (stereo not shown) [Example 315, N-(4-amino-1,1-difluorobutan-2-yl)-4-[[3-[4-(difluoromethoxy)-2,3-difluorophenyl]imidazo[1,2-a]pyrazin-8-yl]amino]-2-ethylbenzamide; hydrochloride] is 27-fold higher in IC90: 48 nM for the first, 1300 nM for the second.

Same assay, conditions: Acinetobacter baumannii, ATCC17978, 16 h, 90% growth inhibitory concentration; Acinetobacter baumannii ATCC17978; Iso-Sensitest broth, OD 600 nm over 16h; read-out: ATCC17978 IC90

Going from `CCc1cc(Nc2nccn3c(-c4ccc(Oc5ccccn5)c(F)c4F)cnc23)ccc1C(=O)NCCNC(=O)[C@@H](N)CCNC(=N)N` [Example 420, N-[2-[[(2S)-2-amino-4-guanidino-butanoyl]amino]ethyl]-4-[[3-[2,3-difluoro-4-(2-pyridyloxy)phenyl]imidazo [1,2-a]pyrazin-8-yl]amino]-2-ethyl-benzamide; formic acid] to `CCc1cc(Nc2nccn3c(-c4ccc(Oc5nccc(C)n5)c(F)c4F)cnc23)ccc1C(=O)NCCNC(=O)[C@@H](N)CCNC(=N)N` [Example 445, (S)-N-(2-(2-amino-4-guanidinobutanamido)ethyl)-4-((3-(2,3-difluoro-4-((4-methylpyrimidin-2-yl)oxy)phenyl)imidazo[1,2-a]pyrazin-8-yl)amino)-2-ethylbenzamide formiate 1:2], the IC90 falls from 720 nM to 380 nM (1.9-fold).

Going from `CCc1cc(Nc2nccn3c(-c4ccc(OC)c(F)c4F)cnc23)ccc1C(=O)NCCCCCN` [Example 418, N-(5-aminopentyl)-4-((3-(2,3-difluoro-4-methoxyphenyl)imidazo[1,2-a]pyrazin-8-yl)amino)-2-ethylbenzamide hydrochloride] to `CCc1cc(Nc2nccn3c(-c4ccc(OC)c(F)c4F)cnc23)ccc1C(=O)N[C@@H](C)CN` [Example 102, (S)-N-(1-aminopropan-2-yl)-4-((3-(2,3-difluoro-4-methoxyphenyl)imidazo [1,2-a]pyrazin-8-yl)amino)-2-ethylbenzamide dihydrochloride], the IC90 rises from 33 nM to 320 nM (9.7-fold).

First: COc1ccc(-c2cnc3c(Nc4ccc(C(=O)NCCCS(=O)(=O)N5CCNCC5)c(C)c4)nccn23)c(F)c1F [Example 68, 4-((3-(2,3-difluoro-4-methoxyphenyl)imidazo [1,2-a]pyrazin-8-yl)amino)-2-methyl-N-(3-(piperazin-1-ylsulfonyl)propyl) benzamide]
Second: COc1ccc(-c2cnc3c(Nc4ccc(C(=O)NCCCN5CCNC(C(=O)O)C5)c(Cl)c4)nccn23)c(F)c1F (stereo not shown) [Example 314, 4-[3-[[2-chloro-4-[[3-(2,3-difluoro-4-methoxyphenyl)imidazo[1,2-a]pyrazin-8-yl]amino]benzoyl]amino]pro-pyl]piperazine-2-carboxylic acid;formic acid]
The IC90 of the first is 7.6-fold lower: 170 nM for the first, 1300 nM for the second.

Going from `N#CCOc1ccc(-c2cnc3c(Nc4ccc(C(=O)NCCc5ccncc5)c(Cl)c4)nccn23)c(F)c1F` [Example 75, 2-chloro-4-((3-(4-(cyanomethoxy)-2,3-difluorophenyl)imidazo [1,2-a]pyrazin-8-yl)amino)-N-(2-(pyridin-4-yl)ethyl)benzamide] to `N#CCOc1ccc(-c2cnc3c(Nc4ccc(C(=O)NCCCCCCN)c(Cl)c4)nccn23)c(F)c1F` [Example 497, N-(6-aminohexyl)-2-chloro-4-((3-(4-(cyanomethoxy)-2,3-difluorophenyl)imidazo[1,2-a]pyrazin-8-yl)amino)benzamide], the IC90 falls from 90 nM to 25 nM (3.6-fold).

`CCc1cc(Nc2nccn3c(-c4ccc(OC(F)F)c(F)c4F)cnc23)ccc1C(=O)NCCCNC(=O)CN(C)C` [Example 324, 4-[[3-[4-(difluoromethoxy)-2,3-difluorophenyl]imidazo[1,2-a]pyrazin-8-yl]amino]-N-[3-[[2-(dimethylamino)acetyl]amino]propyl]-2-ethylbenzamide] and `CCc1cc(Nc2nccn3c(-c4ccc(OCC#N)c(F)c4F)cnc23)ccc1C(=O)NCCNC(=O)[C@@H](N)CN` [Example 145, 4-[[3-[4-(cyanomethoxy)-2,3-difluoro-phenyl]imidazo[1,2-a]pyrazin-8-yl]amino]-N-[2-[[(2S)-2,3-diaminopropanoyl]amino]ethyl]-2-ethyl-benzamide formate] are within 1.5-fold of each other in IC90: 110 nM for the first, 150 nM for the second.

Compared with `CCc1cc(Nc2nccn3c(-c4ccc(OC)c(F)c4F)cnc23)ccc1C(=O)NCC(O)CNC(=O)[C@@H](N)CN` (mixture of isomers) [Example 415, N-[3-[[(2S)-2,3-diaminopropanoyl]amino]-2-hydroxypropyl]-4-[[3-(2,3-difluoro-4-methoxyphenyl)imidazo[1,2-a]pyrazin-8-yl]amino]-2-ethylbenzamide;dihydrochlo-ride], `CCc1cc(Nc2nccn3c(-c4ccc(OC)c(F)c4F)cnc23)ccc1C(=O)N[C@@H](C)CNC(C)=N` [Example 480, 4-[[3-(2,3-difluoro-4-methoxyphenyl)imidazo[1,2-a]pyrazin-8-yl]amino]-#N!- [(2#S!)-1-(ethanimidoylamino)propan-2-yl]-2-ethylbenzamide;formic acid] is 1.9-fold lower in IC90: 520 nM for the first, 270 nM for the second.

First: Cc1cc(Nc2nccn3c(-c4ccc(OC(F)F)cc4)cnc23)ccc1C(=O)N(C)CCN1C[C@@H](C)O[C@@H](C)C1 [Example 256, 4-[[3-[4-(difluoromethoxy)phenyl]im-idazo[1,2-a]pyrazin-8-yl]amino]-N,2-dimethyl-N-[2-[rac-(2R,6S)-2,6-dimethylmorpholin-4-yl]ethyl]benzamide]
Second: Cc1cc(Nc2nccn3c(-c4ccc(OC(F)F)cc4)cnc23)ccc1C(=O)NCCN1CCOCC1 [Example 230, 4-[[3-[4-(difluoromethoxy)phenyl]im-idazo[1,2-a]pyrazin-8-yl]amino]-2-methyl-N-(2-morpholin-4-ylethyl)benzamide]
The IC90 of the first is 1.6-fold higher: 1900 nM for the first, 1200 nM for the second.

First: Cc1cc(Nc2nccn3c(-c4ccc(Cl)c(F)c4F)cnc23)ccc1C(=O)NCCCCN [Example 202, N-(4-aminobutyl)-4-[[3-(4-chloro-2,3 difluorophenyl)imidazo[1,2-a]pyrazin-8-yl]amino]-2-methylbenzamide; hydrochlo-ride]
Second: CCc1cc(Nc2nccn3c(-c4ccc(OC)c(F)c4F)cnc23)ccc1C(=O)NCCN1CCC[C@H](N)C1=O [Example 347, N-[2-[(3S)-3-amino-2-oxopiperidin-1-yl]ethyl]-4-[[3-(2,3-difluoro-4-methoxyphenyl)imidazo[1,2-a]pyrazin-8-yl]amino]-2-ethylbenzamide]
The IC90 of the first is 2.4-fold lower: 460 nM for the first, 1100 nM for the second.

Going from `CCc1cc(Nc2nccn3c(-c4ccc(OCc5cc[nH]n5)c(F)c4F)cnc23)ccc1C(=O)N[C@@H](C)CN` (racemic) [Example 485, rac-(R)-4-((3-(4-((1H-pyrazol-3-yl)methoxy)-2,3-difluorophenyl)imidazo[1,2-a]pyrazin-8-yl)amino)-N-(1-aminopropan-2-yl)-2-ethylbenzamide] to `CCc1cc(Nc2nccn3c(-c4ccc(OC)c(F)c4F)cnc23)ccc1C(=O)NCc1cnc(N)s1` [Example 569, N-((2-aminothiazol-5-yl)methyl)-4-((3-(2,3-difluoro-4-methoxyphenyl)imidazo[1,2-a]pyrazin-8-yl)amino)-2-ethylbenzamide], the IC90 falls from 800 nM to 84 nM (9.5-fold).

Going from `COc1ccc(-c2cnc3c(Nc4ccc(C(=O)NCCO)cc4)nccn23)cc1Cl` [Example 243, 4-[[3-(3-chloro-4-methoxyphenyl)imidazo[1,2-a]pyrazin-8-yl]amino]-N-(2-hydroxyethyl)benzamide] to `COc1ccc(-c2cnc3c(Nc4ccc(C(=O)NCCCN(C)C)cc4)nccn23)cc1Cl` [Example 263, 4-[[3-(3-chloro-4-methoxyphenyl)imidazo[1,2-a]pyrazin-8-yl]amino]-N-[3-(dimethylamino)propyl]benz-amide], the IC90 rises from 2100 nM to 5000 nM (2.4-fold).

Compared with `Cc1cc(Nc2nccn3c(-c4ccc(OC(F)F)cc4)cnc23)ccc1C(=O)NC[C@H](C)N` [Example 254, N-[(2S)-2-aminopropyl]-4-[[3-[4-(difluoromethoxy)phenyl]im-dazo[1,2-a]pyrazin-8-yl]amino]-2-methylbenzamide; hydrochlo-ride], `Cc1cc(Nc2nccn3c(-c4ccc(OC(F)F)cc4)cnc23)ccc1C(=O)NCCCCCN1CCOCC1` [Example 25, 4-((3-(4-(difluoromethoxy)phenyl)imidazo[1,2-a]pyrazin-8-yl)amino)-2-methyl-N-(5-morpholinopentyl) benzamide] is 21-fold lower in IC90: 3300 nM for the first, 160 nM for the second.

`CCc1cc(Nc2nccn3c(-c4ccc(Oc5nccc(C)n5)c(F)c4F)cnc23)ccc1C(=O)N[C@@H](C)CNC(=O)[C@@H](N)CCNC(=N)N` [Example 455, N-((S)-1-((S)-2-amino-4-guanidinobutanamido)propan-2-yl)-4-((3-(2,3-difluoro-4-((4-methylpyrimidin-2-yl)oxy)phenyl)imidazo[1,2-a]pyrazin-8-yl)amino)-2-ethylbenzamide formiate 1:2] and `COc1ccc(-c2cnc3c(Nc4ccc(C(=O)NCC5CCCOC5)c(C)c4)nccn23)cc1F` (stereo not shown) [Example 72, 4-((3-(3-fluoro-4-methoxyphenyl)imidazo [1,2-a]pyrazin-8-yl)amino)-2-methyl-N-((tetrahydro-2H-pyran-3-yl)methyl)benzamide] are within 1.5-fold of each other in IC90: 720 nM for the first, 1000 nM for the second.

Going from `COc1ccc(-c2cnc3c(Nc4ccc(C(=O)NCCC5CCN(C)CC5)c(C)c4)nccn23)cc1` [Example 48] to `COc1ccc(-c2cnc3c(Nc4ccc(C(=O)N(C)CCCC5OCC(N)CO5)c(C)c4)nccn23)cc1F` (stereo not shown) [Example 192, N-[3-(5-amino-1,3-dioxan-2-yl)propyl]-4-[[3-(3-fluoro-4-methoxyphenyl)imidazo[1,2-a]pyrazin-8-yl]amino]-N,2-dimethylbenzamide], the IC90 rises from 220 nM to 340 nM (1.5-fold).
